Assay: xn = mol fraction of the nth substance listed
Conditions: 100 kPa, Liquid, Vibrating tube method

Cc1ncc(CO)c(CO)c1O.Cl [5-hydroxy-6-methyl-3,4-pyridinedimethanol hydrochloride] + O
Conditions | mass density [kg/m3]
293.15 K, x1 = 0.01626 | 1093.5
298.15 K, x1 = 0.01886 | 1104.7
303.15 K, x1 = 0.02222 | 1111
308.15 K, x1 = 0.02522 | 1120.8
313.15 K, x1 = 0.02666 | 1133.3
318.15 K, x1 = 0.02818 | 1141.5
323.15 K, x1 = 0.0329 | 1154.6

Source: the NIST ThermoML archive (doi:10.1021/acs.jced.5b00552)
